In US20060111289A1, “Compositions and methods of using Alpha-fetoprotein growth inhibitory peptides” (Serometrix, LLC,, priority 2004, published 2006):

Assays:
[1] = tested on: 6WI-1 mammary tumor cells; assay: Mouse ascites mammary tumor assay (6WI-1 isograft); assay type: in vivo; settings: for Suppression of accumulation of cells and ascites fluid volume (anticancer activity): 1.0 μg peptide per day for 11 days
Protocol: The growth suppression of the mammary ascites tumor by AFP peptides and its fragments P149a, P149b and P149c, and control peptides were determined in non-estrogen dependent assays which measured tumor cell growth and ascites accumulation of 6WI-1 mammary transplanted NYLAR/nya mice. […] Tumor cell inocula included doses of 0.3, 1.0, and 3.0×10^6 cells which produced host mortality at 12-14 days which was lethal in 100% of the animals. Following peptide dose titration studies, mice inoculated with 6WI-1 mammary cells were injected with a previously-determined optimal dose of 1.0 μg peptide per day or saline for 11 days. On day 12 following inoculation, the total accumulated ascites fluid volume and tumor cells in the peritoneal cavity of each animal were harvested and the cell count determined.
Inoculation of mice with all three cell doses led to an increase in body weight from 25 g (day 0) to approximately […] by day 12, due to the accumulation of tumor cells and ascites fluid in the intraperitoneal cavity. An average cell count in accumulated ascites fluid on day 12 was greater than 10^8 cells/ml with a total ascites volume approximating 20 mls. Tumor cell proliferation in this model has been reported to correlate with the volume of ascites fluid accumulated.
The 6WI-1 mouse mammary tumor studies involving peptide and non-peptide treatment were further compared by histopathological analysis performed on hematoxylin/eosin stained tissue sections.

[2] = tested on: LNCaP human prostate tumor cells; assay: Whole-cell voltage clamp of LNCaP cells; assay type: cell-based; settings: 10 μM
Protocol: LNCaP human prostate tumor cells were cultured on 5×5 mm plastic coverslips and were transferred to a microperfusion chamber on the stage of an inverted microscope. Whole-cell voltage clamp was accomplished with an Axopatch 200B (Axon Instr. Co., Union City, Calif.) using ruptured patches. Borosilicate glass capillaries (1.2 mm OD, 0.68 ID, type EN-I, Garner Glass Co., Claremont, Calif.) were used to fabricate patch pipettes (3-8 MΩ in the bath solution) with a Brown-Flaming horizontal micropipette puller (P-87, Sutter Instruments, San Rafael, Calif.). Patch-pipette tips were heat-polished prior to use. A micromanipulator (Narishige) fixed to the microscope positioned the pipettes. Electrode capacitance and access resistance were compensated prior to measurements. All experiments will be performed at room temperature (20-22° C.). The standard extracellular salt solution for ion currents contained (in mM): 150 NaCl, 6 KCl, 1.5 CaCl2, 1 MgCl2, 10 HEPES, 10 glucose, and pH adjusted to 7.4 with 1 N NaOH. […] Electrophysiological recordings were procured and analyzed using PClamp8 software (Axon Instr. Co, Union City, Calif.) and the WinASCD software (Guy Droogmans, Katholieke Universiteit; Leuven, B E). All results were recorded on computer hard drive or on digital audio tape (DAT). […]

[3] = Estrogen fetotoxicity; set-up: concentration or dose not given beside the values; settings: in vivo
[4] = tested on: human platelets; assay: Platelet aggregation in human platelet-rich plasma; assay type: cell-based; set-up: % Inhibition Of Activity: Platelet Agg. ADP / % Inhibition Of Activity: Platelet Agg. AA / % Inhibition Of Activity: Platelet Agg. Coll: concentration or dose not given beside the values
Protocol: FIG. 9 presents exemplary data showing platelet aggregation modulation using 0.5 ml of normal human platelet-rich plasma (PRP) with varying amounts of P149 or P 149b using 2.5×10^6 platelets per reaction vessel.
FIG. 10 presents exemplary data showing platelet aggregation activation by arachidonic acid (AA) and collagen using P149-treated platelet suspensions • Panel A1: AA alone; • Panel A2: AA followed by epinephine (EPI) and EPI alone using P149b; • Panel A3: CD62P flow cytometry fluorescence quenching by P149; • Panel B1: collagen alone and collagen+P149; • Panel B2: collagen alone; collagen+P149a showing aggregation diminution.
GIP-derived peptide fragments and/or subfragments have been assayed for platelet aggregation by measuring light transmissions with an aggregometer using a stirred human platelet suspension. Kinlough-Rathbone et al., In: Platelet Aggregation in Measurements of Platelet Function, Eds. Harker L A, Zimmerman T S., Churchill Livingstone, London. pp. 64-87 (1983); and Whittle et al., “Specificity between the anti-aggregatory actions of prostacyclin, prostaglandin Eland D2 on platelets” In: Mechanisms of stimulus—response coupling in platelets, Eds. V. V. K., MacIntyre D E, Scully M F., New York and London: Plenum Press. pp. 109-115 (1985).
The ability of GIP and its fragments were individually examined for aggregation inhibition using citrated human platelet-rich plasma (PRP). The peptides were freshly dissolved in 0.15 M NaCl containing 2.5×10^6 platelets/ml. […]

[5] = tested on: 6WI-1 mammary tumor cells; assay: 6WI-1 mammary tumor in 15-day old mouse pups (6 day assay); assay type: in vivo; set-up: % Inhibition Of Activity: 6WI-1 Pup Ascites: concentration or dose not given beside the values; settings: mouse pups
Excerpt: As an alternative model of the 6WI-I mammary tumor in adult mice, an inocula of 1×10^6 tumor cells injected into 15-day old mouse pups provided a 6 day rather than a 12 day assay and replicated the same tumor growth suppression by GIP.

[6] = tested on: human kidney tumor cell line
[7] = tested on: MCF-7 cells; assay: Estrogen-dependent MCF-7 foci formation assay; assay type: cell-based, human; set-up: % Inhibition Of Activity: MCF-7 foci formation: concentration or dose not given beside the values
Excerpt: Mizejewski et al., “Alpha-fetoprotein derived synthetic peptides: assay of an estrogen-modifying regulatory segment” Mol Cell Endocrinol 118:15-23 (1996). The P149 peptide inhibited the formation of tumor cell foci formed as a result of the accumulation of breast cancer cells which clump together due to loss of contact inhibition.

[8] = tested on: immature mouse uterine growth; assay: E2-activated immature mouse uterine growth assay; assay type: in vivo; set-up: % Inhibition Of Activity: Uterine Growth: concentration or dose not given beside the values; settings: mouse, in vivo
Protocol: FIG. 3 presents exemplary data showing the growth suppressive activities of the oligomeric forms of P149, cyclic versus linear, are depicted in various in vitro and in vivo models. Biological activity was determined by three growth-dependent bioassays, namely; • Panel-A and A1) an immature rodent uterine bioassay; • Panel-B and B 1) an in vitro MCF-7 foci assay; • Panel-C and C1) an in vitro tumor cell cytostatic assessment. […] See text for details. Scrambled peptide=P327. […]

[9] = tested on: immature mouse uterine growth; assay: E2-activated immature mouse uterine growth assay; assay type: in vivo; set-up: concentration or dose not given beside the values
[10] = tested on: MCF-7 and 6WI-1 tumor cells; assay: Tumor cell adhesion to ECM proteins in microtiter plates; assay type: cell-based, human, murine
Protocol: FIG. 8 presents exemplary data showing the inhibition of P149 in the cellular adhesion of cancer cells to extracellular matrix (ECM) proteins for both human MCF-7 breast cancer cells and for murine 6WI-1 ascites-adapted mammary tumor cells. The cellular adhesion assay was performed in 96-well microtiter plates (Nunc Company, Denmark, catalog #263339) and the wells were pre-coated with 100 microliters of each of the above-mentioned ECM proteins for 24 hours as previously determined. After adding tumor cells, the plates were then incubated at 37° C. for various times; while 6WI-1 cells usually required only 2-4 hours incubation for adhesion; MCF-7 cells required 24 hours for attachment following trypsinization. For both cell lines, the cell culture media contained 5% calf serum to ensure cell attachment. The plates were washed twice with Hank's Saline, fixed in 0.5 mL of 37% formaldehyde, stained with crystal violet and read at […] on a microplate reader. Inset: Using a CyQUANT® stain kit, (Hoechst Corp., Germany) the plates were first exposed to a freeze/thaw cycle at −70° C. for 24 hours and 37° C. for 10 minutes. CyQUANT® buffer solution (150 microliters) was added to each well, and the cell adhesion was measured by fluorescence spectroscopy and quantitated using an ImageQuant® plate scanner (Fluorimager 595, Molecular Dynamics, Sunnyvale, Calif.).
This attachment of GIP was a slightly weaker adhesion matrix than was gelatin, chondroitin sulfate, and poly-lysine which approximated 30-35%. Using P149, the optimal amount of peptide required to inhibit tumor cell adhesion was determined by absorbing soluble peptide (1.0 pg to 100 μg) to the walls of microtiter plates. A constant number of MCF-7 tumor cells (i.e., for example, 1×10^5) were then added to the microtiter well and adhesion quantitated by fluorescence. […] The quantitation of MCF-7 and 6WI-1 cell adhesion in the presence of peptide versus peptide-free media was then determined on ECM-coated microtiter plates using 3 μg GIP/well as a competitive inhibitor. The P149 peptide was added to the wells immediately after the cells were dispensed and then the mixture was incubated as described. The AFP peptide was capable of cell adhesion inhibition in most of the ECM proteins in both tumor cell lines. Inhibition of mouse and human tumor cell adhesion was somewhat equivalent using collagen IV, fibrinogen, fibronectin, and thrombospondin. […] Thus, the GIP was found capable of eliciting different attachment inhibitions dependent on the type of ECM protein coating the wall of the microtiter plate and also the tumor cell type involved.

[11] = 1 × 10^6 tumor cells I.P., daily injections for eleven days, N = 5
[12] = 6WI-1 mouse mammary ascites tumor

GINHLPSDAVGTAIEVMPCLRDGKLCIGAEHIEL (listed as Homo sapiens) [P327]
Suppression of accumulation of cells and ascites fluid volume (anticancer activity) [1]: totally lacked anticancer activity
Metastatic histopathological findings: Abdominal Muscle [1, 11]: Focal tumor infiltrate
Metastatic histopathological findings: Gross Findings [1, 11]: Presence of tumor
Metastatic histopathological findings: Kidney [1, 11]: No infiltrate
Metastatic histopathological findings: Liver [1, 11]: No infiltrate
Metastatic histopathological findings: Pancreas [1, 11]: Distinct presence of
Metastatic histopathological findings: Retro-peritoneal mesentery and fat [1, 11]: Extensive tumor infiltrate
Metastatic histopathological findings: Spleen [1, 11]: No infiltrate
Metastatic histopathological findings: Uterus + Ovary [1, 11]: Tumor encased organ
Metastatic tumor infiltration, histopathology summary ([1]; mouse, in vivo): high-to-moderate tumor infiltrates
Whole-cell membrane current [2]: no effect on membrane current

MTPVNPGV (listed as Homo sapiens) [P149c]
% Inhibition Of Activity: Estrogen Fetotoxicty [3]: 37%
Inhibition of platelet aggregations induced by ADP and collagen [4]: no significant inhibition
% Inhibition Of Activity: Platelet Agg. ADP ([4]; ADP-induced): 0%
% Inhibition Of Activity: Platelet Agg. AA ([4]; arachidonic acid-induced): 0%
% Inhibition Of Activity: Platelet Agg. Coll ([4]; collagen-induced): 0%
Platelet aggregation inhibition ([4]; inducer not specified): lack inhibitory capabilities
Inhibition (%) Of Platelet Aggregation, Adenosine Diphosphate (ADP) 2.5 μM ([4]; peptide inhibitors 30 & 100 μM): No effect
Inhibition (%) Of Platelet Aggregation, Arachidonic Acid (AA) 0.3 mM ([4]; peptide inhibitors 30 & 100 μM): No effect
Inhibition (%) Of Platelet Aggregation, Collagen (COLL) 2 μg/ml ([4]; peptide inhibitors 30 & 100 μM): No effect
Inhibition (%) Of Platelet Aggregation, Epinephrine ([4]; peptide inhibitors 30 & 100 μM): No effect
% Inhibition Of Activity: 6WI-1 Pup Ascites [5]: 29%
Suppression of accumulation of cells and ascites fluid volume (anticancer activity) [1]: significantly suppressed
% Inhibition Of Activity: 6WI-1 Acites Volume [1, 12]: 39%
% Inhibition Of Activity: 6WI-1 Body Weight [1, 12]: 44%
% Inhibition Of Activity: 6WI-1 Cell Prol [1, 12]: 45%
% Inhibition Of Activity: Kidney tumor growth [6]: 19%
% Inhibition Of Activity: MCF-7 foci formation [7]: 45%
% Inhibition Of Activity: Uterine Growth [8]: 42%
% Inhibition Of Activity: Uterine Growth, Enzymatic Fragments [9]: 44%
% Inhibition Of Activity: Cell Adhesion [10]: 56%
